Source: US7163933B2, “Treating agent for Paget's disease of bone” (Teijin Limited, priority 2002, dated 2007)

Key:
TAFII-17 gene = TAFII-17 gene expression (RT-PCR, band density vs β-actin) in bone marrow mononuclear cells from patients with Paget's disease of bone; type: cell-based, human
Excerpt: (§1) Mononuclear cells were fractionated from bone marrow cells of healthy normal adults and patients with Paget's disease of bone according to a method of Kurihara et al. (Endocrinology, vol. 126, 2733–2741 (1990) and Journal of Clinical Investigation, vol. 105, 606–614 (2000)). Briefly, bone marrow cells were obtained from normal adults and patients with Paget's disease of bone, a mononuclear cell fraction was collected by Hypaque-Ficoll density gradient centrifugation, the cell fraction was washed with α-Minimal Essential Media (α-MEM, GIBCO BRL; Grand Island, N.Y.) 3 times, and the cells were dispersed in α-MEM containing 10% fetal bovine serum (GIBCO BRL; Grand Island, N.Y.). This mononuclear cell suspension was seeded on 100-mm tissue culture plates, the culture plates were kept for 90 minutes at 37° C. in a 5% CO2-air atmosphere, and the non-adherent cells were collected.
Mononuclear cells were prepared from bone marrow collected from patients with Paget's disease of bone according to a method described in Example 1. The collected mononuclear cells were dispersed in an α-MEM culture medium containing 20% horse serum in such a manner that the concentration became 3.3×10^5 cells/ml, seeded on 35-mm tissue culture plates at 3 ml/plate, and cultured for 12 hr at 37° C. in an incubator of 5% CO2-air in the presence of 10^−10 M 1α, 25-dihydroxyvitamin D3 and 10^−8 M Compound 11 (23S isomer) of the present invention singly, or in the presence of 10^−10 M 1α, 25-dihydroxyvitamin D3 and 10^−8 M Compound 11 (23S isomer) together. Subsequently, the cells were collected by centrifuge, RNA was extracted according to a routine procedure after the addition of 1 ml of an RNAzol B solution, and the resulting RNA was converted into cDNA by using a reverse transcriptase. The TAFII-17 gene was subjected to PCR reaction of 35 cycles each consisting of 1 min at 94° C., 1 min at 55° C. and 1 min at 72° C. using 5′-[…]-3′ (SEQ ID NO: 14) (sense) and 5′-[…]-3′(SEQ ID NO: 15) (antisense) as the primers. The PCR products were fractionated by electrophoresis using 2% agarose gel. As a house-keeping gene, β-actin was subjected to PCR reaction in the same manner, and the PCR products were fractionated by electrophoresis using 2% agarose gel. The densities of the bands of the TAFII-17 gene and the β-actin gene were determined by an image analyzer.

[1] = test system: bone marrow cells from patients with Paget's disease of bone; experiment: Osteoclast formation in bone marrow cultures from patients with Paget's disease of bone (23C6-positive cells with three or more nuclei); type: cell-based, human
Excerpt: as §1
Mononuclear cells were fractionated from bone marrow cells of patients with Paget's disease of bone as described in Example 1. The collected mononuclear cells were dispersed in an α-MEM culture medium containing 20% horse serum in such a manner that the concentration became 10^6 cells/ml, and seeded on a 96-well multiplate at 100 μl/well. The suppression effect of Compound 11 (23S isomer) on osteoclast formation in the bone marrow cells of patients with Paget's disease of bone induced by 1α,25-dihydroxyvitamin D3 was evaluated as follows. Into each well, 1α,25-dihydroxyvitamin D3 of various concentrations, Compound 11 (23S isomer) of various concentrations, or a combination of 10^−10 M 1α,25-dihydroxyvitamin D3 and Compound 11 (23S isomer) of various concentrations was added. The culture medium was replaced two times a week, and culture was continued for 3 weeks at 37° C. in an incubator of 5% CO2-air. After the culture, the culture product was subjected to 23C6 antibody (antibody; gift from Dr. Michael A. Horton, Rayne Institute, Bone and Mineral Center, London, United Kingdom) alkaline phosphatase dyeing (VECTASTAIN-ABC-AP kit; Vector Laboratories, Burlingame, Calif.), and the nuclei were dyed with methyl green. Cells that were positive to 23C6 antibody and had three or more nuclei were determined as osteoclast, and the number of all osteoclasts in each well was counted.

[2] = test system: human 25-hydroxyvitamin D3-24-hydroxylase gene promoter; experiment: 25-hydroxyvitamin D3-24-hydroxylase (24-OHase) luciferase reporter assay in NIH3T3 cells; type: cell-based, mouse
Excerpt: The promoter region of the human 25-hydroxyvitamin D3-24-hydroxylase gene(−186/−5), which contains two vitamin D responsive elements (VDRE) was cloned into a luciferase reporter vector pGL3-Basic Vector (Promega; Madison, Wis.). This plasmid construct was cotransfected with a β-galactosidase expression plasmid into pcDNA3.1-Neo-hTAFII-17-CDS (Example 2) or its empty vector-transfected mouse fibroblastic cell line NIH3T3 cells by lipofection (LipofectAMINE; GIBCO BRL; Grand Island, N.Y.). Sixteen hours after the transfection, vehicle (0.1% ethanol) or 1α,25-(OH)2D3 (10^−10 to 10^−8 M) was added. Forty-eight hours later, the cells were harvested in the cell lysate solution provided with the luciferase assay kit (Promega; Madison, Wis.). The luciferase activities of the cell lysates were measured with the luciferase assay kit according to the manufacturer's instructions and was standardized with the β-galactosidase activities of the same cell lysates determined with a β-galactosidase enzyme assay system (Promega; Madison, Wis.).

[3] = test substance alone at 10^−7 M, 3 weeks culture
[4] = test substance alone at 10^−8 M, 3 weeks culture
[5] = test substance alone at 10^−9 M, 3 weeks culture
[6] = test substance alone at 10^−10 M, 3 weeks culture
[7] = test substance alone at 10^−11 M, 3 weeks culture

C=C1C[C@H](C[C@H](C)[C@H]2CC[C@H]3/C(=C/C=C4/C[C@@H](O)C[C@H](O)C4=C)CCC[C@]23C)OC1=O (single isomer, unassigned) [Compound 11 (23S isomer)]
expression of TAFII-17 gene (in words) (TAFII-17 gene; 10^−8 M Compound 11 (23S isomer) added alone): remarkably suppressed | TAFII-17/β-actin (TAFII-17 gene; 10^−8 M Compound 11 (23S isomer) singly, 12 hr culture): 6.82 arbitrary units | TAFII-17/β-actin (TAFII-17 gene; 10^−8 M Compound 11 (23S isomer) together with 10^−10 M 1α,25-(OH)2D3, 12 hr culture): 46.89 arbitrary units | expression of TAFII-17 gene accelerated by 10^−10 M 1α,25-(OH)2D3 (in words) (TAFII-17 gene; addition of 10^−8 M Compound 11 (23S isomer)): strongly suppressed | osteoclast formation (average number of cells ± S.D.) ([1]; 10^−6 M compound 11 (23S isomer) + 10^−10 M 1α,25-dihydroxyvitamin D3, 3 weeks culture): 1 ± 1 cells | osteoclast formation (average number of cells ± S.D.) ([1]; 10^−7 M compound 11 (23S isomer) + 10^−10 M 1α,25-dihydroxyvitamin D3, 3 weeks culture): 14 ± 1 cells | osteoclast formation (average number of cells ± S.D.) ([1]; 10^−8 M compound 11 (23S isomer) + 10^−10 M 1α,25-dihydroxyvitamin D3, 3 weeks culture): 63 ± 5 cells | osteoclast formation (average number of cells ± S.D.) ([1]; 10^−9 M compound 11 (23S isomer) + 10^−10 M 1α,25-dihydroxyvitamin D3, 3 weeks culture): 125 ± 5 cells | osteoclast formation (average number of cells ± S.D.) ([1]; 10^−10 M compound 11 (23S isomer) + 10^−10 M 1α,25-dihydroxyvitamin D3, 3 weeks culture): 155 ± 6 cells | osteoclast formation (average number of cells ± S.D.) ([1]; 10^−11 M compound 11 (23S isomer) + 10^−10 M 1α,25-dihydroxyvitamin D3, 3 weeks culture): 170 ± 13 cells | osteoclast formation induced by 10^−10 M 1α,25-dihydroxyvitamin D3 (in words) ([1]; Compound 11 (23S isomer) added simultaneously, range of 10^−11 M to 10^−6 M): suppressed | osteoclast formation (in words) ([1]; Compound 11 (23S isomer) alone at 10^−6 M): did not caused any osteoclast formation | osteoclast formation (in words) ([1]; Compound 11 (23S isomer) by itself): rather inhibited the osteoclast formation | osteoclast formation (average number of cells ± S.D.) ([1]; test substance alone at 10^−6 M, 3 weeks culture): 1 ± 1 cells | osteoclast formation (average number of cells ± S.D.) [1, 3]: 8 ± 2 cells | osteoclast formation (average number of cells ± S.D.) [1, 4]: 9 ± 3 cells | osteoclast formation (average number of cells ± S.D.) [1, 5]: 16 ± 2 cells | osteoclast formation (average number of cells ± S.D.) [1, 6]: 20 ± 4 cells | osteoclast formation (average number of cells ± S.D.) [1, 7]: 29 ± 5 cells

C=C1/C(=C\C=C2/CCC[C@]3(C)[C@@H]([C@H](C)CCCC(C)(C)O)CC[C@@H]23)C[C@@H](O)C[C@@H]1O [1α,25-dihydroxyvitamin D3, reference compound]
TAFII-17/β-actin (TAFII-17 gene; 10^−10 M 1α,25-(OH)2D3 singly, 12 hr culture): 100 arbitrary units | concentration exhibiting almost the maximum activity on osteoclast formation ([1]; 1α,25-dihydroxyvitamin D3 alone): ~10^−9 M | osteoclast formation (in words) ([1]; 1α,25-dihydroxyvitamin D3 alone, range of 10^−11 M to 10^−7 M): stimulated osteoclast formation concentration-dependently | osteoclast formation (average number of cells ± S.D.) [1, 3]: 205 ± 6 cells | osteoclast formation (average number of cells ± S.D.) [1, 4]: 206 ± 16 cells | osteoclast formation (average number of cells ± S.D.) [1, 5]: 211 ± 25 cells | osteoclast formation (average number of cells ± S.D.) [1, 6]: 180 ± 15 cells | osteoclast formation (average number of cells ± S.D.) [1, 7]: 134 ± 14 cells | expression of 25-hydroxyvitamin D3-24-hydroxylase gene (reporter, in words) ([2]; TAFII-17 gene-transfected NIH3T3 cells, 10^−8 M 1α,25-(OH)2D3, 48 h): extremely accelerated | expression of 25-hydroxyvitamin D3-24-hydroxylase gene (reporter, in words) ([2]; TAFII-17 gene-transfected NIH3T3 cells, 10^−9 M 1α,25-(OH)2D3, 48 h): accelerated | expression of 25-hydroxyvitamin D3-24-hydroxylase gene (reporter, in words) ([2]; empty vector-transfected NIH3T3 cells, 10^−8 M 1α,25-(OH)2D3, 48 h): detected | expression of 25-hydroxyvitamin D3-24-hydroxylase gene (reporter, in words) ([2]; empty vector-transfected NIH3T3 cells, 10^−9 M 1α,25-(OH)2D3, 48 h): hardly detected
